Assay results published in patent US11505533B2, “Metabolically stable N-acylaminooxadiazoles useful as antibacterial agents” (MICROBIOTIX, INC., priority 2017, dated 2022).

Columns and labels:
Type in all cases: binding
Adenosine A1 = target: T1, Adenosine A1 (Homo sapiens, UniProt P30542); details: for % Inhibition: 10 μM
T1 sequence (P30542 1-326): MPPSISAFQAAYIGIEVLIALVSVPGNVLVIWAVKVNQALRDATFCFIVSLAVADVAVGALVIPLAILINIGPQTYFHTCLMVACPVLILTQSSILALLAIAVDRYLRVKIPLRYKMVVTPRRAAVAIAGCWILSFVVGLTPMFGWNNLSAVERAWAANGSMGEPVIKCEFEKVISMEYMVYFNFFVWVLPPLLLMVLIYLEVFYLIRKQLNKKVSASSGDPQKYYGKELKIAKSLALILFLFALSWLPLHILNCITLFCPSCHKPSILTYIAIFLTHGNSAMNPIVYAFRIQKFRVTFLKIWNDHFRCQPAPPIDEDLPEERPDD

Adenosine A2A = Adenosine A2A (Homo sapiens, UniProt P29274); details: for % Inhibition: 10 μM
Adrenergic α1A = target: T2, Adrenergic α1A (Rattus norvegicus, UniProt P43140); details: for % Inhibition: 10 μM
T2 sequence (P43140 1-466): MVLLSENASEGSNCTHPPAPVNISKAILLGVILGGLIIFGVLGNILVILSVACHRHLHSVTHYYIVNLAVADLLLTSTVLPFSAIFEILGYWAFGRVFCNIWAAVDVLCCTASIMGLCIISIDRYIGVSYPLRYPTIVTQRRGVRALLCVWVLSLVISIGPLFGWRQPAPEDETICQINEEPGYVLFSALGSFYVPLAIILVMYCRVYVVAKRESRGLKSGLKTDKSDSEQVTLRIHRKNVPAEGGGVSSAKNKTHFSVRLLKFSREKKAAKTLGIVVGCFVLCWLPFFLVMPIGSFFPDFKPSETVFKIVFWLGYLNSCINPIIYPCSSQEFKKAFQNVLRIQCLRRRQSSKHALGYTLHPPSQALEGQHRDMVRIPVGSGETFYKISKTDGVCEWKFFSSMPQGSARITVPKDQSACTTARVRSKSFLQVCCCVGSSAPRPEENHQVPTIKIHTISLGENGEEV

Adrenergic α1B = target: T3, Adrenergic α1B (Rattus norvegicus, UniProt P15823); details: for % Inhibition: 10 μM
T3 sequence (P15823 1-515): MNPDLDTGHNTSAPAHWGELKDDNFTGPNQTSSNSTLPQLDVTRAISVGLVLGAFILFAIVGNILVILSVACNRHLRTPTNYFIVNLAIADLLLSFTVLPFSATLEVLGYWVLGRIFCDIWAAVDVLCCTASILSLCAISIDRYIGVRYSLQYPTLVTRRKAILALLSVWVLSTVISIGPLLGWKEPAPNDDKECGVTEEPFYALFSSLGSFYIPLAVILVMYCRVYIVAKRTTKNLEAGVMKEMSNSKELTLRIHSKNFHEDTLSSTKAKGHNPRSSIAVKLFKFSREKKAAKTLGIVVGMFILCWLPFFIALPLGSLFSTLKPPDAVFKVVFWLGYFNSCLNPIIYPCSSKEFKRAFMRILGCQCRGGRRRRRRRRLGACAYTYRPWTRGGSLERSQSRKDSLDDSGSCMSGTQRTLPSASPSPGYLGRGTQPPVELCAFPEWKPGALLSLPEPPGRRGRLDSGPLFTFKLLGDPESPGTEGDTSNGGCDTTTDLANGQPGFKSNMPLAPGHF

Adrenergic β1 = Adrenergic β1 (Homo sapiens, UniProt P08588); details: for % Inhibition: 10 μM
Adrenergic β2 = Adrenergic β2 (Homo sapiens, UniProt P07550); details: for % Inhibition: 10 μM
[1] = system: Calcium Channel L-type, Dihydropyridine; details: 10 μM; rat
Cannabinoid CB1 = Cannabinoid CB1 (Homo sapiens, UniProt P21554); details: for % Inhibition: 10 μM
Dopamine D1 = Dopamine D1 (Homo sapiens, UniProt P21728); details: for % Inhibition: 10 μM
[2] = system: Glutamate, NMDA, Phencyclidine; details: 10 μM; rat
Muscarinic M2 = target: T4, Muscarinic M2 (Homo sapiens, UniProt P08172); details: for % Inhibition: 10 μM
T4 sequence (P08172 1-466): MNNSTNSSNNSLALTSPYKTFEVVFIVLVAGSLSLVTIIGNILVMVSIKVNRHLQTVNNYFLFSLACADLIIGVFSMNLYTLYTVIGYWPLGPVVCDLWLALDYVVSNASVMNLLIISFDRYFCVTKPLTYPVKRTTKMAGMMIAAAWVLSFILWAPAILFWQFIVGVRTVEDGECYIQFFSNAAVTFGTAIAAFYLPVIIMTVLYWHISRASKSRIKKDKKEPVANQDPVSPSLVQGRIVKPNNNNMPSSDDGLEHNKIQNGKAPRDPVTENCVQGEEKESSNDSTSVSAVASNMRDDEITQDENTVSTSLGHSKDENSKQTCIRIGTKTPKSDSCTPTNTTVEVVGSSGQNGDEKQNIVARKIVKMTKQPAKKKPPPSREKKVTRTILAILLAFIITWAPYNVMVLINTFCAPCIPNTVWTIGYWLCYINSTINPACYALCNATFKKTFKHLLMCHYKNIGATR

Nicotinic Acetylcholine = details: 10 μM; human
Opiate μ(OP3, MOP) = Opiate μ(OP3, MOP) (Homo sapiens, UniProt P35372); details: for % Inhibition: 10 μM
Prostanoid EP4 = Prostanoid EP4 (Homo sapiens, UniProt P35408); details: for % Inhibition: 10 μM
[3] = target: Seritonin (5-Hydroxytryptamine) 5-HT2B (Homo sapiens, UniProt P41595); details: for % Inhibition: 10 μM
Sigma σ1 = Sigma σ1 (Homo sapiens, UniProt Q99720); details: for % Inhibition: 10 μM
Sodium Channel, Site 2 = details: 10 μM; rat
[4] = target: Transporter, Norepinephrine (NET) (Homo sapiens, UniProt P23975); details: for % Inhibition: 10 μM
Transporter, Norepinephrine (NET), sequence (P23975 whole entry): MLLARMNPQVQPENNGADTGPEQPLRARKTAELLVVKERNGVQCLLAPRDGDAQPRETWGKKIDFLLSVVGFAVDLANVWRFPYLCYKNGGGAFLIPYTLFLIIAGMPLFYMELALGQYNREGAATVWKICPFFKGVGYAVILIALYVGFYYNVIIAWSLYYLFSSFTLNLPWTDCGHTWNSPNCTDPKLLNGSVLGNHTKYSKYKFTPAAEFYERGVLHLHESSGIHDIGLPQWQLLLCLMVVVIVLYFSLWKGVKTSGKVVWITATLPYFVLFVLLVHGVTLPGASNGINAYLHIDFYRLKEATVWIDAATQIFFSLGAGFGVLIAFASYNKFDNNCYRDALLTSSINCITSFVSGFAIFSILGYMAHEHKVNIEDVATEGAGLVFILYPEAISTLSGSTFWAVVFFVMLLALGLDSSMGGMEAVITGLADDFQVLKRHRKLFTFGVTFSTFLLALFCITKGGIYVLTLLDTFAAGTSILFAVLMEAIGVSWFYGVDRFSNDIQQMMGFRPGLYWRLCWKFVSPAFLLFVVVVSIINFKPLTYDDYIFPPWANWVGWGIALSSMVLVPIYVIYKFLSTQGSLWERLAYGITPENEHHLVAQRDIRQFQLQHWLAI

Sigma σ1, sequence (Q99720 whole entry): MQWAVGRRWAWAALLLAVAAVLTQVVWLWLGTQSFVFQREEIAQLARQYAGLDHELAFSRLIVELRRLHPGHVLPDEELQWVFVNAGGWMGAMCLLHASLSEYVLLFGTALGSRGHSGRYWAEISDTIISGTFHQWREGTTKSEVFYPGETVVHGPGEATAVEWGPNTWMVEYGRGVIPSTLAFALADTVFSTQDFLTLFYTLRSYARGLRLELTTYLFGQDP
Prostanoid EP4, sequence (P35408 whole entry): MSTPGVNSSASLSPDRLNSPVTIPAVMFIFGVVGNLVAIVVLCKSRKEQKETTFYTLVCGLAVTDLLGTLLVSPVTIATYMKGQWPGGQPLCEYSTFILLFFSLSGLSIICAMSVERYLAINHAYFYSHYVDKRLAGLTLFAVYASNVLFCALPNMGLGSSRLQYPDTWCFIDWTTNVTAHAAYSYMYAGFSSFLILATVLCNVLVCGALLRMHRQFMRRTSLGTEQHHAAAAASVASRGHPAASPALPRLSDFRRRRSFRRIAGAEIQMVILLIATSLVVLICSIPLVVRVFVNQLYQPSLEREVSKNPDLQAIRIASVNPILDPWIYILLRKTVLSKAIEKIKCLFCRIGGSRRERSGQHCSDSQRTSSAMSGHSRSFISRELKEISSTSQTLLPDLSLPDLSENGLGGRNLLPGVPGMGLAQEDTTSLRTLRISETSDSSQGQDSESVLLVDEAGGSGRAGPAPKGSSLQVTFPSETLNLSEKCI
Adenosine A2A, sequence (P29274 whole entry): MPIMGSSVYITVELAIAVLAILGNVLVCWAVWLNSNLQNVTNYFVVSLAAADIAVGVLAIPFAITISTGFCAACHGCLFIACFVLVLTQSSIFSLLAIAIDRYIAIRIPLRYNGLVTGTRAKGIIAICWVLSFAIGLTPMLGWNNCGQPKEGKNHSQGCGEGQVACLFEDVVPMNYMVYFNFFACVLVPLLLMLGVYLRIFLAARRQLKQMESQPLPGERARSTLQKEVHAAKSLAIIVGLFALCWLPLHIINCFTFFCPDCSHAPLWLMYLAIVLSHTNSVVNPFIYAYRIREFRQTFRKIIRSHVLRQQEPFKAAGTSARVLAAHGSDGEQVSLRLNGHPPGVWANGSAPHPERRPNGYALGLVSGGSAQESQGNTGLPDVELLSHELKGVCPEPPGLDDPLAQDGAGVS
Adrenergic β1, sequence (P08588 whole entry): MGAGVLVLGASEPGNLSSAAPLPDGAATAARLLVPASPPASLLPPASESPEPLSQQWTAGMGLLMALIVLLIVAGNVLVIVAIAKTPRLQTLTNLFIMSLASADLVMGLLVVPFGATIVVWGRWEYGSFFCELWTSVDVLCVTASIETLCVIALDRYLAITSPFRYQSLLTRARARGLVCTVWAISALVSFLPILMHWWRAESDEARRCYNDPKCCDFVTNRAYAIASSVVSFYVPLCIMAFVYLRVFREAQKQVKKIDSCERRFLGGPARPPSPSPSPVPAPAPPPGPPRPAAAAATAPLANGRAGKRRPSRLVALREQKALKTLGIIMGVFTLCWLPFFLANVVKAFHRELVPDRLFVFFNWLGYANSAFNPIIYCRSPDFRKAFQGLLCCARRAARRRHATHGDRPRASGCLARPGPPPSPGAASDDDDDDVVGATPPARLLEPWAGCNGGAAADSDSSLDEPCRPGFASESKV
Dopamine D1, sequence (P21728 whole entry): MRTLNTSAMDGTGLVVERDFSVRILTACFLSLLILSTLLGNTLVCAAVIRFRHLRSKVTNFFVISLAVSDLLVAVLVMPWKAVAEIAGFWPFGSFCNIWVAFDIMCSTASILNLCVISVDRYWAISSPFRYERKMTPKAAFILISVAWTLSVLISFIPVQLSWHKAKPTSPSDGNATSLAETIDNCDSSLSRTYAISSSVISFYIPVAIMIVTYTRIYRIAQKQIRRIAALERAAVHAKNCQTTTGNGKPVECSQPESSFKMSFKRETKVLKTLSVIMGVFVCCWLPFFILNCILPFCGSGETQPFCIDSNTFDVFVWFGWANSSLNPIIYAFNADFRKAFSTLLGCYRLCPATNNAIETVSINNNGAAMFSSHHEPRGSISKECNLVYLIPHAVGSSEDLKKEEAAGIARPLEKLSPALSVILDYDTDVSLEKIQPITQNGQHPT
Opiate μ(OP3, MOP), sequence (P35372 whole entry): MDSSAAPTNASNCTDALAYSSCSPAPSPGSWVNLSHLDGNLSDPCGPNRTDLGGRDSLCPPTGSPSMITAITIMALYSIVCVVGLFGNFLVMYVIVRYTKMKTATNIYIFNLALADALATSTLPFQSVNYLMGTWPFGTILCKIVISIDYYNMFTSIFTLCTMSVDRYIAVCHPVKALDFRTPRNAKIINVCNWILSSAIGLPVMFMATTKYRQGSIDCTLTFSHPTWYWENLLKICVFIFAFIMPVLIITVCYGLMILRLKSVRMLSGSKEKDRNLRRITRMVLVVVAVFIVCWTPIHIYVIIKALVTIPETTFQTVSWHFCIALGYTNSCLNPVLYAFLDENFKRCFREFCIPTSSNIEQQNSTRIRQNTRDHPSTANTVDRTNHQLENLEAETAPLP
Adrenergic β2, sequence (P07550 whole entry): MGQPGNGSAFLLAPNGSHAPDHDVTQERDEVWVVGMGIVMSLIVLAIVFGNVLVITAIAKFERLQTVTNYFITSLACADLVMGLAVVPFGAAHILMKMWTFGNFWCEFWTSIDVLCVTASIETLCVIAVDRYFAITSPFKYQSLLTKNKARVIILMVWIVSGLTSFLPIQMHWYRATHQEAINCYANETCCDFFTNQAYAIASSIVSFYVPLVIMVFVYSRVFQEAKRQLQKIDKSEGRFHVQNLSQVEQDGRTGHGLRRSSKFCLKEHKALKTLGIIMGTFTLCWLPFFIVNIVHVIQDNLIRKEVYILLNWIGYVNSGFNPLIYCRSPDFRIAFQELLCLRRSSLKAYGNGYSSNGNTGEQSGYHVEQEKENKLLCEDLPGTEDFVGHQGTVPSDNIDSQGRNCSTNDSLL
Cannabinoid CB1, sequence (P21554 whole entry): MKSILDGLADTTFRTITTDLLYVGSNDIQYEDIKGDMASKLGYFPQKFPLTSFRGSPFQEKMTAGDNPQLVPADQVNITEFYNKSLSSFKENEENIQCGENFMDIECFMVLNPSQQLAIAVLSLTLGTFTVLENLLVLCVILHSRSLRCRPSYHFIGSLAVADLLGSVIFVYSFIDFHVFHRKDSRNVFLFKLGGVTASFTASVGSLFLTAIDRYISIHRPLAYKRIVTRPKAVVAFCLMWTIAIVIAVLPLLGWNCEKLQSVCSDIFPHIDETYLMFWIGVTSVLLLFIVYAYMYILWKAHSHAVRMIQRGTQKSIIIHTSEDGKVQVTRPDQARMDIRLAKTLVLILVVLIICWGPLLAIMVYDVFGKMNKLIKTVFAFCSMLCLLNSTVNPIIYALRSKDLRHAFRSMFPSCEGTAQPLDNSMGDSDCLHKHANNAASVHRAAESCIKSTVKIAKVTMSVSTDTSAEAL
Seritonin (5-Hydroxytryptamine) 5-HT2B, sequence (P41595 whole entry): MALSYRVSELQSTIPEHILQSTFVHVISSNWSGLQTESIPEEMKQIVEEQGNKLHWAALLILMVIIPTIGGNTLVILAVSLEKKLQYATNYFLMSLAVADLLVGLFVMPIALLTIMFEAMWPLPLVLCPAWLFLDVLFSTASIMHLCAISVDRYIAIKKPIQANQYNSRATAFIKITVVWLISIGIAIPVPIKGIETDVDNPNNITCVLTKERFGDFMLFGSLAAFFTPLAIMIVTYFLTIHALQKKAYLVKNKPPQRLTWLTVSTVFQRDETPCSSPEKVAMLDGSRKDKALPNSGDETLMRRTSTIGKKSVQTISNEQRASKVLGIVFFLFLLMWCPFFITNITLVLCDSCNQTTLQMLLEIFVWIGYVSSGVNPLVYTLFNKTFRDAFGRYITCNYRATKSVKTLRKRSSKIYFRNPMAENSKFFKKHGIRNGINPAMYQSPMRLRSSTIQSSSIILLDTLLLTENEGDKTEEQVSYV

O=C(Nc1nnc(-c2ccc(F)cc2)o1)N1CCc2ccccc2C1 [MBX-4132]
% Inhibition (Adenosine A1): 48%
% Inhibition (Adenosine A2A): 43%
% Inhibition (Adrenergic α1A): 24%
% Inhibition (Adrenergic α1B): 21%
% Inhibition (Adrenergic β1): −10%
% Inhibition (Adrenergic β2): 36%
% Inhibition [1]: 15%
% Inhibition (Cannabinoid CB1): 14%
% Inhibition (Dopamine D1): −8%
% Inhibition [2]: −3%
% Inhibition (Muscarinic M2): 13%
% Inhibition (Nicotinic Acetylcholine): −8%
% Inhibition (Opiate μ(OP3, MOP)): 74%
% Inhibition (Prostanoid EP4): 18%
% Inhibition [3]: 53%
% Inhibition (Sigma σ1): −4%
% Inhibition (Sodium Channel, Site 2): 4%
% Inhibition [4]: 50%

O=C(Nc1nnc(-c2ccc(F)cc2)o1)c1ccc(Oc2ccccc2)nc1 [MBX-4237]
inhibition at 10 µM (Adenosine A1): 10%
inhibition at 10 µM (Adenosine A2A): 6%
inhibition at 10 µM (Adrenergic α1A): 6%
inhibition at 10 µM (Adrenergic α1B): -2%
inhibition at 10 µM (Adrenergic β1): -9%
inhibition at 10 µM (Adrenergic β2): 15%
% Inhibition [1]: 2%
inhibition at 10 µM (Cannabinoid CB1): 7%
inhibition at 10 µM (Dopamine D1): 7%
% Inhibition [2]: 9%
inhibition at 10 µM (Muscarinic M2): 17%
% Inhibition (Nicotinic Acetylcholine): 8%
inhibition at 10 µM (Opiate μ(OP3, MOP)): 12%
inhibition at 10 µM (Prostanoid EP4): -22%
inhibition at 10 µM [3]: -4%
inhibition at 10 µM (Sigma σ1): 32%
% Inhibition (Sodium Channel, Site 2): −3%
inhibition at 10 µM [4]: 45%

O=C(Nc1nnc(-c2ccc(F)cc2)o1)c1ccc(OC2CCCCC2)cc1 [MBX-4292]
% Inhibition (Adenosine A1): 8%
% Inhibition (Adenosine A2A): 11%
% Inhibition (Adrenergic α1A): 9%
% Inhibition (Adrenergic α1B): 3%
% Inhibition (Adrenergic β1): 3%
% Inhibition (Adrenergic β2): 6%
% Inhibition [1]: 23%
% Inhibition (Cannabinoid CB1): 11%
% Inhibition (Dopamine D1): 17%
% Inhibition [2]: 0%
% Inhibition (Muscarinic M2): 0%
% Inhibition (Nicotinic Acetylcholine): 1%
% Inhibition (Opiate μ(OP3, MOP)): 4%
% Inhibition (Prostanoid EP4): 28%
% Inhibition [3]: −7%
% Inhibition (Sigma σ1): 10%
% Inhibition (Sodium Channel, Site 2): −2%
% Inhibition [4]: 77%

O=C(Nc1nnc(-c2ccc(F)cc2)o1)N1CC=C(C(F)(F)F)CC1 [MBX-4347]
% Inhibition (Adenosine A1): −4%
% Inhibition (Adenosine A2A): 3%
% Inhibition (Adrenergic α1A): −21%
% Inhibition (Adrenergic α1B): 7%
% Inhibition (Adrenergic β1): 3%
% Inhibition (Adrenergic β2): 8%
% Inhibition [1]: 16%
% Inhibition (Cannabinoid CB1): 0%
% Inhibition (Dopamine D1): 5%
% Inhibition [2]: 5%
% Inhibition (Muscarinic M2): 2%
% Inhibition (Nicotinic Acetylcholine): −4%
% Inhibition (Opiate μ(OP3, MOP)): −14%
% Inhibition (Prostanoid EP4): −4%
% Inhibition [3]: −1%
% Inhibition (Sigma σ1): −2%
% Inhibition (Sodium Channel, Site 2): −5%
% Inhibition [4]: 32%
